{
  "source": "PubChem BioAssay (NCI)",
  "assay_in_all_cases": "NCI tumour cell line growth inhibition, 48 h",
  "key": {"LXFL 529 NSCLC": {"test_system": "LXFL 529 NSCLC"}, "DMS 273 small cell lung": {"test_system": "DMS 273 small cell lung"}, "DMS 114 small cell lung": {"test_system": "DMS 114 small cell lung"}, "M19-MEL melanoma": {"test_system": "M19-MEL melanoma"}, "KM20L2 colon": {"test_system": "KM20L2 colon"}, "XF 498 CNS": {"test_system": "XF 498 CNS"}, "RXF-631 renal": {"test_system": "RXF-631 renal"}, "HOP-18 NSCLC": {"test_system": "HOP-18 NSCLC"}, "DLD-1 colon": {"test_system": "DLD-1 colon"}, "SN12K1 renal": {"test_system": "SN12K1 renal"}, "P388/ADR leukemia": {"test_system": "P388/ADR leukemia"}},
  "note": "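Briefly, cells in 96-well plates were exposed to five compound concentrations for 48 h, and endpoints were estimated by linear interpolation. TGI: concentration producing complete growth inhibition.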",
  "data": [
    {"smiles": "c1ccc(-c2nnc(-c3nsc4ccccc34)o2)cc1", "values": [
      {"measurement": "TGI", "setting": "LXFL 529 NSCLC", "value": "> 100", "unit": "µM"},
      {"measurement": "TGI", "setting": "DMS 273 small cell lung", "value": "> 100", "unit": "µM"},
      {"measurement": "TGI", "setting": "DMS 114 small cell lung", "value": "> 100", "unit": "µM"},
      {"measurement": "TGI", "setting": "M19-MEL melanoma", "value": "> 100", "unit": "µM"},
      {"measurement": "TGI", "setting": "KM20L2 colon", "value": "> 100", "unit": "µM"}
    ]},
    {"smiles": "CCOC(=O)C1=C(C)N(NC(N)=O)C2(O)CCCC(=O)C12C", "note": "(centres undefined)", "values": [
      {"measurement": "TGI", "setting": "LXFL 529 NSCLC", "value": "> 100", "unit": "µM"},
      {"measurement": "TGI", "setting": "XF 498 CNS", "value": "> 100", "unit": "µM"},
      {"measurement": "TGI", "setting": "DMS 273 small cell lung", "value": "> 100", "unit": "µM"},
      {"measurement": "TGI", "setting": "DMS 114 small cell lung", "value": "> 100", "unit": "µM"},
      {"measurement": "TGI", "setting": "RXF-631 renal", "value": "> 100", "unit": "µM"},
      {"measurement": "TGI", "setting": "HOP-18 NSCLC", "value": "> 100", "unit": "µM"},
      {"measurement": "TGI", "setting": "KM20L2 colon", "value": "> 100", "unit": "µM"},
      {"measurement": "TGI", "setting": "DLD-1 colon", "value": "> 100", "unit": "µM"}
    ]},
    {"smiles": "N=C(N)SCc1cccc2c(=O)cc(-c3ccccc3)oc12", "values": [
      {"measurement": "TGI", "setting": "XF 498 CNS", "value": 28.4, "unit": "µM"},
      {"measurement": "TGI", "setting": "DMS 273 small cell lung", "value": 27.7, "unit": "µM"},
      {"measurement": "TGI", "setting": "DMS 114 small cell lung", "value": 31.1, "unit": "µM"},
      {"measurement": "TGI", "setting": "RXF-631 renal", "value": 28.5, "unit": "µM"},
      {"measurement": "TGI", "setting": "M19-MEL melanoma", "value": 49.9, "unit": "µM"},
      {"measurement": "TGI", "setting": "KM20L2 colon", "value": 45.6, "unit": "µM"},
      {"measurement": "TGI", "setting": "DLD-1 colon", "value": 48.5, "unit": "µM"}
    ]},
    {"smiles": "O=C1OCc2cccc3c2-c2c1cccc2C(=O)OC3", "values": [
      {"measurement": "TGI", "setting": "DMS 114 small cell lung", "value": "> 100", "unit": "µM"},
      {"measurement": "TGI", "setting": "M19-MEL melanoma", "value": "> 100", "unit": "µM"},
      {"measurement": "TGI", "setting": "HOP-18 NSCLC", "value": "> 100", "unit": "µM"},
      {"measurement": "TGI", "setting": "KM20L2 colon", "value": "> 100", "unit": "µM"},
      {"measurement": "TGI", "setting": "DLD-1 colon", "value": "> 100", "unit": "µM"}
    ]},
    {"smiles": "CCCCS(=O)(=O)Nc1ccc(Nc2c3ccccc3nc3ccccc23)c(OC)c1", "values": [
      {"measurement": "TGI", "setting": "XF 498 CNS", "value": 10.5, "unit": "µM"},
      {"measurement": "TGI", "setting": "SN12K1 renal", "value": 3.55, "unit": "µM"},
      {"measurement": "TGI", "setting": "P388/ADR leukemia", "value": 2.88, "unit": "µM"},
      {"measurement": "TGI", "setting": "DMS 273 small cell lung", "value": 3.37, "unit": "µM"},
      {"measurement": "TGI", "setting": "M19-MEL melanoma", "value": 19.6, "unit": "µM"},
      {"measurement": "TGI", "setting": "HOP-18 NSCLC", "value": 19.8, "unit": "µM"},
      {"measurement": "TGI", "setting": "KM20L2 colon", "value": 11.9, "unit": "µM"},
      {"measurement": "TGI", "setting": "DLD-1 colon", "value": 24.4, "unit": "µM"}
    ]},
    {"smiles": "O=C(O)C12CCCC(CCC1)C2", "values": [
      {"measurement": "TGI", "setting": "LXFL 529 NSCLC", "value": "> 100", "unit": "µM"},
      {"measurement": "TGI", "setting": "XF 498 CNS", "value": "> 100", "unit": "µM"},
      {"measurement": "TGI", "setting": "DMS 273 small cell lung", "value": "> 100", "unit": "µM"},
      {"measurement": "TGI", "setting": "DMS 114 small cell lung", "value": "> 100", "unit": "µM"},
      {"measurement": "TGI", "setting": "RXF-631 renal", "value": "> 100", "unit": "µM"},
      {"measurement": "TGI", "setting": "DLD-1 colon", "value": "> 100", "unit": "µM"}
    ]}
  ]
}
